Like-named read-outs stand apart in the source and are kept apart here.

Holding throughout (format): cell-based
One assay concerns the target T1, PR-LBD fused to Gal4-DBD (Homo sapiens, UniProt P06401).
T1 construct: PR-LBD region was PCR amplified using the following primer combination; host or cells: U2OS
T1 sequence (P06401 679-913 limits assumed): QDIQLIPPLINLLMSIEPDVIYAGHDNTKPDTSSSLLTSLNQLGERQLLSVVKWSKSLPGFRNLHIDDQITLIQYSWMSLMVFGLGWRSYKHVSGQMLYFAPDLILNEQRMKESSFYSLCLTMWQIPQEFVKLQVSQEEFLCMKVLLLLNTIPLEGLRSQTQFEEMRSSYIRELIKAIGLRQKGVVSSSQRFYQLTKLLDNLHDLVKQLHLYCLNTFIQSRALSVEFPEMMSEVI
Kind of assay: U2OS-PR-LBD/9xGal4UAS luciferase reporter cell line.

In assay [1] the target is T2, ERα^G420C-LBD fused to Gal4-DBD (Homo sapiens, UniProt P03372, G420C).
T2 construct: expressed in transfected cells; host or cells: U2OS
T2 sequence (P03372 311-547 G420C limits assumed): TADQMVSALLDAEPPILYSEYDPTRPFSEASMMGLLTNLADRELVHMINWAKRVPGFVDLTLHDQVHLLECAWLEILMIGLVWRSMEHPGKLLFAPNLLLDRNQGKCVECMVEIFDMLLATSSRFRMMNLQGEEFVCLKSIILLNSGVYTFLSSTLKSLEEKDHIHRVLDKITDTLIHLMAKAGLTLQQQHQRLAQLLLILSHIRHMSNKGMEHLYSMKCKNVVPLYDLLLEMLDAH
Kind of assay: U2OS-ERα^G420C-LBD/9xGal4UAS luciferase reporter cell line. On the technique in general: A reporter such as luciferase makes a cellular process visible.

Assay [2] has as its target T3, ERβ-LBD fused to Gal4-DBD (Homo sapiens, UniProt Q92731).
T3 construct: region comprising ERβ-LBD and a piece of the hinge region; expressed in transfected cells; host or cells: U2OS
Kind of assay: U2OS-ERβ-LBD/9xGal4UAS luciferase reporter cell line.

For another assay, the target named is T4, human ERα (full-length) (Homo sapiens, UniProt P03372, G400V).
T4 sequence (P03372 1-595 G400V): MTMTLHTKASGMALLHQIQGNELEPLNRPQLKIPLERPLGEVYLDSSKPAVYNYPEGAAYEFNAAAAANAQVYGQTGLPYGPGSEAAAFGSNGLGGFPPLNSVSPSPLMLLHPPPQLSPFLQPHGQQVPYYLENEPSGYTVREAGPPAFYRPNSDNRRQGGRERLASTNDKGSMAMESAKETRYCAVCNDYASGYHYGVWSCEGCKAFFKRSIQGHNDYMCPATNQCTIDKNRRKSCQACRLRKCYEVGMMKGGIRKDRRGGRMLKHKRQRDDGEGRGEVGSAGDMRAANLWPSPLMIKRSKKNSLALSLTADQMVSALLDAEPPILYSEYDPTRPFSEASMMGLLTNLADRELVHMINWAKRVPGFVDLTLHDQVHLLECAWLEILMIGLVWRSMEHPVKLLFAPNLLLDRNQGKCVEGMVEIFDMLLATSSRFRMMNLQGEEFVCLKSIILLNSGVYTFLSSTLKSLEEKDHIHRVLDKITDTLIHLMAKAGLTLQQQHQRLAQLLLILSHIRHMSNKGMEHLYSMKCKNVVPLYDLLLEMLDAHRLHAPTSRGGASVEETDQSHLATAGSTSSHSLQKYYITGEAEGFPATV
Kind of assay: U2OS-ERα/3xERE luciferase reporter cell line (full-length receptor).

In another assay the target is T5, MR-LBD fused to Gal4-DBD (Homo sapiens, UniProt P08235).
T5 construct: MR-LBD was cloned by RT-PCR from total RNA isolated from HEK293 cells; expressed in transfected cells; host or cells: U2OS
T5 sequence (P08235 726-964 limits assumed): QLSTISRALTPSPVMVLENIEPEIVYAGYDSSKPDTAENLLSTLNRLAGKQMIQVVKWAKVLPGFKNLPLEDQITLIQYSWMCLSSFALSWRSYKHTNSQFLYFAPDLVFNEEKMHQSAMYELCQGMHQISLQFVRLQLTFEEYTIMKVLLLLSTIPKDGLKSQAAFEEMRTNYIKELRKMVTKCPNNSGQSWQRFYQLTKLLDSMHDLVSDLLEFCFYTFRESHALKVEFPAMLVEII
Kind of assay: U2OS-MR-LBD/9xGal4UAS luciferase reporter cell line.

The target in a further assay is T6, human ERβ (full-length) (Homo sapiens, UniProt Q92731).
T6 construct: expression vectors encoding full-length steroid receptors: pcDNA3-hERα and pcDNA3-ERβ; expressed in transfected cells; host or cells: U2OS
T6 sequence (Q92731 whole entry): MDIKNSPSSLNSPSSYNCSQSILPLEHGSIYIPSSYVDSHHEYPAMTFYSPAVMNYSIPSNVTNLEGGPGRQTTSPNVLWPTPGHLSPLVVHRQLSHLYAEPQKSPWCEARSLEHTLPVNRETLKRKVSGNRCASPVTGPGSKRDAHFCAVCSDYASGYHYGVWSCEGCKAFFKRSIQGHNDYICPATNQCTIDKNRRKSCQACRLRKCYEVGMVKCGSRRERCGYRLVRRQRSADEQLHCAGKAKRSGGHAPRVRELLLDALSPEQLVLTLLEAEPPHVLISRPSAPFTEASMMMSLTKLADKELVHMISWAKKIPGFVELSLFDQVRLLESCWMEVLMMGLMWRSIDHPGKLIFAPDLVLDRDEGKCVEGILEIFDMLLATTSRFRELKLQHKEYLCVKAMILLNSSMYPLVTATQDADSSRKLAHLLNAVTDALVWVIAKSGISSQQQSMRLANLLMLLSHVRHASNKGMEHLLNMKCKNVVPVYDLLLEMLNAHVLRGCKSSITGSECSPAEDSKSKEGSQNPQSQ
As to the kind of experiment: U2OS-ERβ/3xERE luciferase reporter cell line (full-length receptor).

A further assay deals with T7, human MR (full-length) (Homo sapiens, UniProt P08235).
T7 construct: expression vectors encoding full-length steroid receptors: pcDNA3-hAR, pcDNA3-hGR and pcDNA3-hMR; expressed in transfected cells; host or cells: U2OS
T7 sequence (P08235 1-984): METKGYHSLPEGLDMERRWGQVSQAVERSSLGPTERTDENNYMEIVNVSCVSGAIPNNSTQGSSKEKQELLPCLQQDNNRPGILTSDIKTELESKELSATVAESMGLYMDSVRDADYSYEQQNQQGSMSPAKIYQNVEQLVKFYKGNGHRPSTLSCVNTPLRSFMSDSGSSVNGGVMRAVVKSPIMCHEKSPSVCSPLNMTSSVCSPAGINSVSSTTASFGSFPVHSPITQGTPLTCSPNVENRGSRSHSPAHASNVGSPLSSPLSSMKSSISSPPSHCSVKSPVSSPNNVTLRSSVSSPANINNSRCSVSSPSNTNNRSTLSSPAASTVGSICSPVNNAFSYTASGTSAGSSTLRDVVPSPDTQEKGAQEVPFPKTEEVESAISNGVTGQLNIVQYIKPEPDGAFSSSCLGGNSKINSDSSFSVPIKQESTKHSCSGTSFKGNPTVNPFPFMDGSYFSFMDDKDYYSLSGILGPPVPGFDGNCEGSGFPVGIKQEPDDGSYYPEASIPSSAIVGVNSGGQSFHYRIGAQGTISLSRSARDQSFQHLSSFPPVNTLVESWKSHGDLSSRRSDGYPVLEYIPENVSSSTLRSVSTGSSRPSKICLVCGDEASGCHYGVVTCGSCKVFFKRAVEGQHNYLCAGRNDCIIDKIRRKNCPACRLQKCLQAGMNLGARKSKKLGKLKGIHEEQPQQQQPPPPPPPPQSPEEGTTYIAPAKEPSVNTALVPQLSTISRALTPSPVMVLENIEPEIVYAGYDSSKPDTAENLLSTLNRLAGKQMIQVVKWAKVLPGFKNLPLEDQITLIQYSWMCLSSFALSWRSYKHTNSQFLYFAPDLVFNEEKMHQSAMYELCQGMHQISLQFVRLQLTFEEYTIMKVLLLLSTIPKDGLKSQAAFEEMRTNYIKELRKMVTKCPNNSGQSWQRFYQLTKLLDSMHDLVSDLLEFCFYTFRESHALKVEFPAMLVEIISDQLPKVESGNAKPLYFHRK
Kind of assay: U2OS-MR/MMTV luciferase reporter cell line (full-length receptor).

Assay [3] deals with T8, ERα^wt-LBD fused to Gal4-DBD (Homo sapiens, UniProt P03372).
T8 construct: ERα-LBD (amino acids 303-595) based on GenBank NM_000125; expressed in transfected cells; host or cells: U2OS
T8 sequence (P03372 303-595): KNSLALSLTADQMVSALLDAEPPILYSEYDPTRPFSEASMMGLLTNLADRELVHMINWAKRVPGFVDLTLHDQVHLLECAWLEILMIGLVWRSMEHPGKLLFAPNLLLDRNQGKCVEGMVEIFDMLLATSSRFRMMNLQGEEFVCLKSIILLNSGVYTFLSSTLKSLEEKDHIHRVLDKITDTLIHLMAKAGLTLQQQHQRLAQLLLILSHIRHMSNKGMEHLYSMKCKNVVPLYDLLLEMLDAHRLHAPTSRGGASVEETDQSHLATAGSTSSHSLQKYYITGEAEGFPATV
As to the kind of experiment: U2OS-ERα^wt-LBD/9xGal4UAS luciferase reporter cell line.

Assay [4] deals with T9, human GR (full-length) (Homo sapiens, UniProt P04150).
T9 construct: expression vectors encoding full-length steroid receptors: pcDNA3-hAR and pcDNA3-hGR; host or cells: U2OS
T9 sequence (P04150 1-777): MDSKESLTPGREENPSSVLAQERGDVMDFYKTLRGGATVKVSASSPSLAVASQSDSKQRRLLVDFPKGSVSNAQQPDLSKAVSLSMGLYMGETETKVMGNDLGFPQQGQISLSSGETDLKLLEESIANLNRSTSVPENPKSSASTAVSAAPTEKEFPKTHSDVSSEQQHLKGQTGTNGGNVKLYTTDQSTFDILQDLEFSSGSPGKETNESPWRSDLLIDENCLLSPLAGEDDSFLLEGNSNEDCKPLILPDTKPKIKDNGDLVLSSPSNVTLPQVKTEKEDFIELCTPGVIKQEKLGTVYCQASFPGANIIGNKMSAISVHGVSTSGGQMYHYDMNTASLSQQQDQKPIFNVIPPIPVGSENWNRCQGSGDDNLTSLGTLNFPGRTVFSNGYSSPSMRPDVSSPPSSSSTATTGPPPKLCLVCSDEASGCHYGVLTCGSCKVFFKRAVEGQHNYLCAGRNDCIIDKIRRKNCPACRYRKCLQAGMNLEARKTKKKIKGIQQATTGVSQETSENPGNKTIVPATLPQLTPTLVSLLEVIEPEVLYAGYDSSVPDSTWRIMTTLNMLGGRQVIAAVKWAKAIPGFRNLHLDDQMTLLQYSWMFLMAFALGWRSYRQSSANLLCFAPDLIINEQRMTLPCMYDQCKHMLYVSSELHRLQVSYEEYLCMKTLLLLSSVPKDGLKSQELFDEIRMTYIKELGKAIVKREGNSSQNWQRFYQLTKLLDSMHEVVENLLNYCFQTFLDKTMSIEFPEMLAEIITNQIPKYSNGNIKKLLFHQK
As to the kind of experiment: U2OS-GR/3xGRE luciferase reporter cell line (full-length receptor).

Assay [5] has as its target T9, human GR (full-length). As to the kind of experiment: U2OS-GR/MMTV luciferase reporter cell line (full-length receptor).
In the next assay the target is T10, GR-LBD fused to Gal4-DBD (Homo sapiens, UniProt P04150).
T10 construct: expressed in transfected cells; host or cells: U2OS
T10 sequence (P04150 524-758 limits assumed): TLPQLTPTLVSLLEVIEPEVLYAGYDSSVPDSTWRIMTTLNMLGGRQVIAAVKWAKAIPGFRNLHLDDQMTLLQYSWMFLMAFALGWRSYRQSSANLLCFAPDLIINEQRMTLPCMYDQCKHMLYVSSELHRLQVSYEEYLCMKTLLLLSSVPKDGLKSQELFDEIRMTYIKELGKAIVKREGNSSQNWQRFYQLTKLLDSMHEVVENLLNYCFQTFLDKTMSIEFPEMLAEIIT
Kind of assay: U2OS-GR-LBD/9xGal4UAS luciferase reporter cell line.

T3 sequence (Q92731 264-498 limits assumed): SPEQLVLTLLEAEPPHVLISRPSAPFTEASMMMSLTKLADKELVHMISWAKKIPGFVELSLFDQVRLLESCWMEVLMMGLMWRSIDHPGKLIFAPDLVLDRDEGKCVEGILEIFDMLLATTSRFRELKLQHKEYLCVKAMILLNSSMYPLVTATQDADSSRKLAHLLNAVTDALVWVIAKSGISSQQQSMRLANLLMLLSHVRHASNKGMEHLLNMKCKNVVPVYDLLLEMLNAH

The IC50 is the midpoint of a concentration-inhibition curve. One may read the EC50 as the concentration that produces a half-maximal response. `CC(C)C(=O)Nc1ccc([N+](=O)[O-])c(C(F)(F)F)c1` [Flutamide, flutamide]: at PR-LBD fused to Gal4-DBD (antagonist mode, PR-LBD/9xGal4UAS, log10 of molar IC50, mean ± SEM, read-out: Log IC50 (converted)), the IC50 was greater than 10 µM. The 50% effective concentration (EC50) at PR-LBD fused to Gal4-DBD (read-out: Log EC50 (converted)) was greater than 10000 nM; in assay [1] it was greater than 10 µM; in assay [2] (read-out: Log EC50 (converted)) it was greater than 10000 nM; on human ERα (full-length) it was greater than 10 µM; at MR-LBD fused to Gal4-DBD (read-out: Log EC50 (converted)), greater than 10 µM; at human ERβ (full-length) (read-out: Log EC50 (converted)), greater than 10000 nM. Besides, the EC50 (at human MR (full-length) (read-out: Log EC50 (converted)); in assay [3]) was greater than 10 µM in each case.
In the case of `CC(=O)S[C@@H]1CC2=CC(=O)CC[C@]2(C)[C@H]2CC[C@@]3(C)[C@@H](CC[C@@]34CCC(=O)O4)[C@H]12` [Spironolactone, spironolactone], the EC50 is greater than 10 µM in [1]; greater than 10 µM at human ERα (full-length) (Log EC50, agonist mode, ERα/3xERE, 20 h, value is log10 of molar EC50, mean ± SEM); greater than 10 µM on human GR (full-length) [4]; greater than 10 µM at human GR (full-length) [5]; greater than 10 µM on GR-LBD fused to Gal4-DBD; greater than 10 µM in [3].
For the compound `C[C@]12CC[C@H]3[C@@H](CCC4=CC(=O)CC[C@@]43C)[C@@H]1CC[C@@H]2O` [Testosterone, testosterone], the EC50 is 46.8 nM at PR-LBD fused to Gal4-DBD; 2880 nM in assay [2]; greater than 10 µM at MR-LBD fused to Gal4-DBD; greater than 10 µM on human GR (full-length) [4]; greater than 10 µM on human GR (full-length) [5]; 490 nM on human ERβ (full-length). The EC50 on GR-LBD fused to Gal4-DBD and at human MR (full-length) was greater than 10 µM throughout. The compound also yielded an IC50 against PR-LBD fused to Gal4-DBD greater than 10 µM.
